Reference: PMC6045374 (ACS Omega, 2018)

What was measured:
[1] = target: T1, homoserine kinase (CglThrB-A20G) (Corynebacterium glutamicum, UniProt P07128, A20G); experiment: steady-state enzyme kinetics, ADP colorimetric assay; type: biochemical
T1 sequence (P07128 1-309 A20G): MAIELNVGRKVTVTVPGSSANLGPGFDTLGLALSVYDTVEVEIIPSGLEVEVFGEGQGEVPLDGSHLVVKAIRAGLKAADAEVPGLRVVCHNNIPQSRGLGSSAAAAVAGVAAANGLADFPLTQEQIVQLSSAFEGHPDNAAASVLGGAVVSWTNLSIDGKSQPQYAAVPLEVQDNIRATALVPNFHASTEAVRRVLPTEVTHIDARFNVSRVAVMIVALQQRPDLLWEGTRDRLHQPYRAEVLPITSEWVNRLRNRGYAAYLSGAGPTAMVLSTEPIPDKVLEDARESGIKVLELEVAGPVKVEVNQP

[2] = target: T2, homoserine kinase (CglThrB-WT) (Corynebacterium glutamicum, UniProt P07128); experiment: as above; type: biochemical
T2 sequence (P07128 2-309): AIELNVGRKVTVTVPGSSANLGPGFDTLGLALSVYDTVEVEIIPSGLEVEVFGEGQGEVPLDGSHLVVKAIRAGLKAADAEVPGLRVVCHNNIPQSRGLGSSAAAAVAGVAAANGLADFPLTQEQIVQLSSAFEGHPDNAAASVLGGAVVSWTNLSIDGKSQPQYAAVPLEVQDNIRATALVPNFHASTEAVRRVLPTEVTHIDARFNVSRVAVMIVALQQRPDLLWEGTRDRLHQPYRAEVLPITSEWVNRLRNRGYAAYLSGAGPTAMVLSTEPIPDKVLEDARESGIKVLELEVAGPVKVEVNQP

SMILES: C[C@@H](O)[C@H](N)C(=O)O [L-threonine]
- Ki [1]: 25.2 mM
- Ki [2]: 4.73 mM
